Experimental data: patent publication EP4722201A1, “3-PHENYLISOXAZOLINE-5-CARBOXAMIDE COMPOUND, AND PREPARATION METHOD THEREFOR, HERBICIDAL COMPOSITION THEREOF AND USE THEREOF” (Jiangsu Flag Chemical Industry Co., Ltd, priority 2023, dated 2024)

How the values were obtained:
Format in all cases: in vivo
[1] = test system: Cyperus iria; experiment: Indoor herbicide activity determination, post-emergence (stem and leaf spray at 2-4 leaf stage); settings: 504 h, 60 g a.i./ha, determined 21 days later, read-out: Inhibition rate of fresh weight, Cyperus iria
From the text: (§1) The testing method for herbicide activity of the compound of the present invention was as follows:
(§2) Post-emergence: an appropriate quantity of seeds of gramineous weeds (Echinochloa crusgalli, Eleusine indica, Digitaria sanguinalis, Alopecurus japonicus, Beckmannia syzigachne, Leptochloa chinensis, Polypogon fugax, Alopecurus aequalis, Lolium multiflorum, Poa annua, Aegilops tauschii, Avena fatua, Alopecurus myosuroides, Alopecurus japonicus and Alopecurus aequalis), broad-leaved weeds (Eclipta prostrata, Amaranthus retroflexus, Rorippa indica, Malachium aquaticum, Veronica polita, Conyza canadensis, Sesbania cannabina, Sagittariatrifolia and Schoenoplectiella juncoides), and Cyperus iria were sown in plastic pots having a diameter of 7 cm and holes at the bottom and filled with nutrient soil (sandy soil, pH 6.1, organic matter 1%) respectively, the seeds were covered with an appropriate amount of soil after being sown, then the soil was wetted with water from the bottom, the seeds were cultured in a constant-temperature illuminated culture room until a 2-4 leaf stage, and stems and leaves underwent spray treatment. After the treatment, the test materials were placed in a laboratory and cultured in the constant-temperature illuminated culture room after the liquid was naturally dry in the shade, and results were determined 21 days later. Inhibition rate of fresh weight % = (1−(fresh weight of treated plants)/(fresh weight of control plants)) × 100% [formula]

[2] = test system: Eclipta prostrata; experiment: as above; settings: 504 h, 60 g a.i./ha, determined 21 days later, read-out: Inhibition rate of fresh weight, Eclipta prostrata
From the text: as §1, §2

[3] = test system: Digitaria sanguinalis; experiment: as above; settings: 504 h, 60 g a.i./ha, determined 21 days later, read-out: Inhibition rate of fresh weight, Digitaria sanguinalis
From the text: as §1, §2

[4] = test system: Eleusine indica; experiment: Indoor herbicide activity determination, Seed Treatment; pre-emergence (soil spray); settings: Dosage 240 g a.i./ha
Outline: (§3)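 Herbicide was applied to soil before weed emergence, 24 h after sowing, by tower spraying. Plants grew at constant temperature with illumination, and fresh weight compared with untreated pots gave % inhibition after 21 days.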

[5] = test system: Lolium multiflorum; experiment: as above; settings: Dosage 240 g a.i./ha
Outline: as §3

[6] = test system: Alopecurus myosuroides; experiment: as above; settings: Dosage 240 g a.i./ha
Outline: as §3

[7] = test system: Alopecurus japonicus; experiment: as above; settings: Dosage 240 g a.i./ha
Outline: as §3

[8] = test system: Leptochloa chinensis; experiment: as above; settings: Dosage 240 g a.i./ha
Outline: as §3

SMILES	inhibition at 60 g/ha [1] [%]	inhibition at 60 g/ha [2] [%]	inhibition at 60 g/ha [3] [%]	Herbicidal activities, Eleusine indica (inhibition rate class) [4]	Herbicidal activities, Lolium multiflorum (inhibition rate class) [5]	Herbicidal activities, Alopecurus myosuroides (inhibition rate class) [6]	Herbicidal activities, Alopecurus japonicus (inhibition rate class) [7]	Herbicidal activities, Leptochloa chinensis (inhibition rate class) [8]
C=CC1(C(=O)N[C@H]2C[C@@H](C(=O)O)C2)CC(c2cc(F)cc(C(F)(F)F)c2)=NO1 (mixture of isomers) [I-49]	80 to 100	60 to 80	60 to 80	A (A indicates that the inhibition rate was greater than or equal to 80% to 100%)	A (A indicates that the inhibition rate was greater than or equal to 80% to 100%)	A (A indicates that the inhibition rate was greater than or equal to 80% to 100%)	A (A indicates that the inhibition rate was greater than or equal to 80% to 100%)	A (A indicates that the inhibition rate was greater than or equal to 80% to 100%)
C=CC1(C(=O)N[C@H]2C[C@@H](C(=O)OC)C2)CC(c2cc(F)cc(C(F)(F)F)c2)=NO1 (mixture of isomers) [I-51]	80 to 100	60 to 80	60 to 80	A (A indicates that the inhibition rate was greater than or equal to 80% to 100%)	A (A indicates that the inhibition rate was greater than or equal to 80% to 100%)	A (A indicates that the inhibition rate was greater than or equal to 80% to 100%)	A (A indicates that the inhibition rate was greater than or equal to 80% to 100%)	A (A indicates that the inhibition rate was greater than or equal to 80% to 100%)
C=CC1(C(=O)N[C@H]2C[C@@H](C(=O)O)C2)CC(c2cc(F)cc(OC(F)(F)F)c2)=NO1 (mixture of isomers) [I-57]	80 to 100	60 to 80	80 to 100	A (A indicates that the inhibition rate was greater than or equal to 80% to 100%)	A (A indicates that the inhibition rate was greater than or equal to 80% to 100%)	A (A indicates that the inhibition rate was greater than or equal to 80% to 100%)	A (A indicates that the inhibition rate was greater than or equal to 80% to 100%)	A (A indicates that the inhibition rate was greater than or equal to 80% to 100%)
C=CC1(C(=O)N[C@H]2C[C@@H](C(=O)OC)C2)CC(c2cc(F)cc(OC(F)(F)F)c2)=NO1 (mixture of isomers) [I-59]	80 to 100	60 to 80	80 to 100	A (A indicates that the inhibition rate was greater than or equal to 80% to 100%)	A (A indicates that the inhibition rate was greater than or equal to 80% to 100%)	A (A indicates that the inhibition rate was greater than or equal to 80% to 100%)	A (A indicates that the inhibition rate was greater than or equal to 80% to 100%)	A (A indicates that the inhibition rate was greater than or equal to 80% to 100%)
CC1(C(=O)N[C@H]2C[C@@H](C(=O)O)C2)CC(c2cc(F)cc(F)c2)=NO1 (mixture of isomers) [I-111]	80 to 100	60 to 80	80 to 100	A (A indicates that the inhibition rate was greater than or equal to 80% to 100%)	A (A indicates that the inhibition rate was greater than or equal to 80% to 100%)	A (A indicates that the inhibition rate was greater than or equal to 80% to 100%)	A (A indicates that the inhibition rate was greater than or equal to 80% to 100%)	A (A indicates that the inhibition rate was greater than or equal to 80% to 100%)
COC(=O)[C@H]1C[C@@H](NC(=O)C2(C)CC(c3cc(F)cc(F)c3)=NO2)C1 (mixture of isomers) [I-113]	80 to 100	60 to 80	80 to 100	A (A indicates that the inhibition rate was greater than or equal to 80% to 100%)	A (A indicates that the inhibition rate was greater than or equal to 80% to 100%)	A (A indicates that the inhibition rate was greater than or equal to 80% to 100%)	A (A indicates that the inhibition rate was greater than or equal to 80% to 100%)	A (A indicates that the inhibition rate was greater than or equal to 80% to 100%)
CC1(C(=O)N[C@H]2C[C@@H](C(=O)O)C2)CC(c2cc(F)cc(Cl)c2)=NO1 (mixture of isomers) [I-132]	80 to 100	60 to 80	80 to 100	A (A indicates that the inhibition rate was greater than or equal to 80% to 100%)	A (A indicates that the inhibition rate was greater than or equal to 80% to 100%)	A (A indicates that the inhibition rate was greater than or equal to 80% to 100%)	A (A indicates that the inhibition rate was greater than or equal to 80% to 100%)	A (A indicates that the inhibition rate was greater than or equal to 80% to 100%)
COC(=O)[C@H]1C[C@@H](NC(=O)C2(C)CC(c3cc(F)cc(Cl)c3)=NO2)C1 (mixture of isomers) [I-134]	80 to 100	60 to 80	80 to 100	A (A indicates that the inhibition rate was greater than or equal to 80% to 100%)	A (A indicates that the inhibition rate was greater than or equal to 80% to 100%)	A (A indicates that the inhibition rate was greater than or equal to 80% to 100%)	A (A indicates that the inhibition rate was greater than or equal to 80% to 100%)	A (A indicates that the inhibition rate was greater than or equal to 80% to 100%)
CC1(C(=O)N[C@H]2C[C@@H](C(=O)O)C2)CC(c2cc(Cl)cc(Cl)c2)=NO1 (mixture of isomers) [I-137]	80 to 100	40 to 60	80 to 100	A (A indicates that the inhibition rate was greater than or equal to 80% to 100%)	A (A indicates that the inhibition rate was greater than or equal to 80% to 100%)	A (A indicates that the inhibition rate was greater than or equal to 80% to 100%)	A (A indicates that the inhibition rate was greater than or equal to 80% to 100%)	A (A indicates that the inhibition rate was greater than or equal to 80% to 100%)
